Measured values: patent publication EP0807626A1, “N-HYDROXYUREA DERIVATIVES” (Nikken Chemicals Company, Limited, priority 1995, dated 1996)
pIC50: −log10 of the molar value.

What was measured:
[1] = target: T1, thromboxane synthase (Homo sapiens, UniProt P24557); experiment: Test of thromboxane synthase inhibitory action (production of thromboxane B2 in human platelet microsomes); format: biochemical; conditions: suppressing production of thromboxane (thromboxane B2), prostaglandin H2, EIA, read-out: TxSI IC50
T1 construct: containing human platelet microsomes (50 µg protein/ml) and the test compound; from tissue; host or cells: human platelet microsomes
T1 sequence (P24557 1-533): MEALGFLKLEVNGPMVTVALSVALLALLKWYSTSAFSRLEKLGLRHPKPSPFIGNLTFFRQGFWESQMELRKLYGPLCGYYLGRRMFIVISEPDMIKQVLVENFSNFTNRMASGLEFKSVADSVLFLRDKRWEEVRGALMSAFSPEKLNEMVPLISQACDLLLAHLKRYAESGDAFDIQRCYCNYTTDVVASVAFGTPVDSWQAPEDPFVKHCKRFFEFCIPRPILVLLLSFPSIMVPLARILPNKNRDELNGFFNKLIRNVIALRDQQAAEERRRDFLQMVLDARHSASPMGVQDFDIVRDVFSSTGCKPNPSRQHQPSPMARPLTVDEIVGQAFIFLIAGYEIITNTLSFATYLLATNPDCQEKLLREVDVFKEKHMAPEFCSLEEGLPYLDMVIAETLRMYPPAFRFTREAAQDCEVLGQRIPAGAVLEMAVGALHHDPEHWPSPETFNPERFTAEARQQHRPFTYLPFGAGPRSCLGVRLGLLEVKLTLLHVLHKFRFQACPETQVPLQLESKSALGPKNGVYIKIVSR
Description: Human platelet microsomes were used and a test of the thromboxane synthase inhibitory activity of the compounds was determined by the amount of production of thromboxane B2 as the thromboxane A2 stable metabdite.
[…] A reaction was initiated to added prostaglandin H2 (100 ng/2 µl), and terminated with 1N hydrocloric acid. Then neutralized by 1M Tris-base, and centrifuged at 3000 rpm for 20 minutes. The content of the thromboxane B2 in the supernatent was measured by the EIA method (Cayman Co. kit).
As the test compound, the same compounds as in Test Example 1 were used.

[2] = target: T2, lipoxygenase (Rattus norvegicus, UniProt P12527); experiment: Test of lipoxygenase inhibitory action (production of leukotriene B4 in rat polymorphonuclear leukocytes); format: cell-based; conditions: inhibiting the production of leukotriene B4, calcium ionophore A-23187, EIA, read-out: LTBI IC50
T2 construct: the peritoneal cavities were lavaged and the polymorphonuclear leukocytes were recovered; endogenous in cells; host or cells: casein-elicited peritoneal polymorphonuclear leukocytes of Wistar male rats
T2 sequence (P12527 1-673): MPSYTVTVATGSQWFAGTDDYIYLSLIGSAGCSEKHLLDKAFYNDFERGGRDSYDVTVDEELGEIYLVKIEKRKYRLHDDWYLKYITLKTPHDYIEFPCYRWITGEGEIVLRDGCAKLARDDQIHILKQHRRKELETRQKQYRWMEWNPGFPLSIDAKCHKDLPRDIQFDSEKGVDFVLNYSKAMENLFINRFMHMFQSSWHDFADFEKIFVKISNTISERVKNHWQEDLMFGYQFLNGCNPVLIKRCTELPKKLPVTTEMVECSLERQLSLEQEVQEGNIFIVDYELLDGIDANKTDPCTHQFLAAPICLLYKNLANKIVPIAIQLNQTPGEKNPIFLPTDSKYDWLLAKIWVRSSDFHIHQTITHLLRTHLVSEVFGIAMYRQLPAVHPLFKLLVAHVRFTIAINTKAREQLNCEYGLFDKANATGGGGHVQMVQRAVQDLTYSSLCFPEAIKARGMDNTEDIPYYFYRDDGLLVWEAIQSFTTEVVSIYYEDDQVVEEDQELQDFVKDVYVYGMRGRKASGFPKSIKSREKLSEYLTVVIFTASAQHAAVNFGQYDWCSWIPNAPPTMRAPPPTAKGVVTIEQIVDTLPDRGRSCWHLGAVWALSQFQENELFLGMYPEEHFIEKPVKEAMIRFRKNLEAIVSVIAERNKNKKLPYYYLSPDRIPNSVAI
Description: Using rat polymorphonuclear leukocytes, a test of the lipoxygenase inhibitory activity of the test compounds was determined the amount of production of leukotriene B4.
Wistar male rats (Japan Clea) were intraperitoneally administered with 12% sodium casein. After 16 hours, the peritoneal cavities were lavaged and the polymorphonuclear leukocytes were recovered. The obtained polymorphonuclear leukocytes were suspended in a phosphate buffer (137 mM NaCl, 3 mM KCl, 8 mM Na2HPO4, 2 mM KH2PO4) (2.5 × 10^5 cells/0.4 ml), then the incubation was carried out at 37°C for 10 minutes the test compound (final concentration 10^-5M) was added and then for 5 minutes after a calcium solution (10 mM CaCl2, 0.86% NaCl) 0.1 ml was added, then 1.25 µl of calcium ionophore (20 µM, A-23187) was added and the reaction started. Five minutes after the addition, 250 µl of methanol was added to stop the reaction. After the reaction was stopped, the resultant mixture was centrifuged for 20 minutes (4°C, 3000 rpm), then the amount of leukotriene B4 in the supernatant was measured by the EIA method (Cayman Co. kit).
As the test compound, the above mentioned Compound 1 to Compound 4, Compound 9 to Compound 11, Compound 22 to Compound 26, Compound 28, Compound 29, compound 32, Compound 33, and Compound 40 to Compound 48 were used.

[3] = system: antigen-induced bronchoconstriction; experiment: Antigen-induced bronchoconstriction model of guinea pig (Konzett-Rossler method); format: in vivo; conditions: Cavia porcellus, po, 1 h; guinea pigs sensitized by ovalbumin, orally administered, one hour after administration; read-out: Suppression of Respiratory Constriction (ED50: mg/kg)
Description: Guinea pigs sensitized by ovalbumin were used and orally administered with the test compound suspended in 5% gum arabic. The activity for suppressing antigen-induced bronchoconstriction after one hour after administration was measured by the Konzett-Rossler method.
Each of the sensitized guinea pigs was anesthesized by 35 mg/kg pentobarbital, a airway cannula was inserted into the trachea and connected to an artificial respirator and transducer, a vein cannula was inserted into the jugular vein, and treatment was performed by 5 mg/kg soxamethonium and 5 mg/kg mepyramine. Next, the guinea pig was inhaled a nebulized ovalbumin to cause bronchoconstriction and the activity in suppressing bronchoconstriction was found from the ratio of the amount of overflow volume to the detector to the amount of air blown volume from the artificial respirator.
As the test compound, the Compound 7 was used. […]

Row | SMILES | pIC50 [1] | pIC50 [2] | ED50 [3]
1 | COc1cccc(NC(=O)N(O)CCCCCCC(c2ccccc2)c2cccnc2)c1 (centres unmarked) [Compound 26, N-hydroxy-N'-(3-methoxyphenyl)-N-[7-phenyl-7-(3-pyridyl)heptyl]urea] | 8.70 | 7.40 | –
2 | NC(=O)N(O)CCCC(c1ccccc1)c1cccnc1 (centres unmarked) [Compound 7, N-hydroxy-N-[4-phenyl-4-(3-pyridyl)butyl]urea] | – | – | 70 mg/kg
3 | CC(c1cc2ccccc2s1)N(O)C(N)=O (centres unmarked) [Compound A-64077] | – | – | 300 mg/kg
4 | O=C(NC1CCCCC1)N(O)CCCC(c1ccccc1)c1cccnc1 (centres unmarked) [Compound 9, N'-cyclohexyl-N-hydroxy-N-[4-phenyl-4-(3-pyridyl)butyl]urea] | 9.52 | 6.00 | –
5 | NC(=O)N(O)CCC=C(c1cccnc1)c1cccc(C(F)(F)F)c1 [Compound 4, N-hydroxy-N-[4-(3-pyridyl)-4-(3-trifluoromethylphenyl)-3-buten-1-yl] urea] | 8.22 | 5.70 | –
6 | CC(CCCCCCCC(c1ccccc1)c1cccnc1)N(O)C(=S)NC1CCCCC1 (centres unmarked) [Compound 32, N'-cyclohexyl-N-hydroxy-N-[1-methyl-9-phenyl-9-(3-pyridyl)nonyl]thiourea] | 8.05 | 7.00 | –
7 | O=C(O)/C=C/c1ccc(Cn2ccnc2)cc1 [OKY-046] | – | – | 260 mg/kg
8 | NC(=O)N(O)Cc1ccc(OC(c2ccccc2)c2cccnc2)cc1 (stereo not drawn) [Compound 43, N-hydroxy-N-[4-[α-(3-pyridyl)benzyloxy]benzyl]urea] | 7.30 | 6.30 | –
9 | NC(=O)N(O)CCCCCCC(c1ccccc1)c1cccnc1 (centres unmarked) [Compound 24, N-hydroxy-N-[7-phenyl-7-(3-pyridyl)heptyl]urea] | 8.00 | 7.10 | –
10 | NC(=O)N(O)CCCCCCCCCC(c1ccccc1)c1cccnc1 (centres unmarked) [Compound 33, N-hydroxy-N-[10-phenyl-10-(3-pyridyl)decyl]urea] | 8.00 | 8.00 | –
11 | CC(c1cccc(CC(c2ccccc2)c2cccnc2)c1)N(O)C(N)=O (stereo not drawn) [Compound 48, N-hydroxy-N-[3-[β-(3-pyridyl)phenethyl]-α-methylbenzyl]urea] | 7.52 | 6.10 | –
12 | ON(CCCCCCCC(c1ccccc1)c1cccnc1)C(=S)Nc1ccccc1 (centres unmarked) [Compound 29, N-hydroxy-N'-phenyl-N-[8-phenyl-8-(3-pyridyl)octyl]thiourea] | 8.70 | 7.40 | –
13 | NC(=O)N(O)Cc1cccc(CC(c2ccccc2)c2cccnc2)c1 (stereo not drawn) [Compound 47, N-hydroxy-N-[3-[β-(3-pyridyl)phenethyl]benzyl]urea] | 7.70 | 6.52 | –
14 | NC(=O)N(O)CCCCC/C=C(\c1ccccc1)c1cccnc1 [Compound 1, N-hydroxy-N-[(E)-7-phenyl-7-(3-pyridyl)-6-hepten-1-yl]urea] | 9.05 | 6.40 | –
15 | CC(c1cccc(OC(c2ccccc2)c2cccnc2)c1)N(O)C(N)=O (stereo not drawn) [Compound 46, N-hydroxy-N-[3-[α-(3-pyridyl)benzyloxy]-α-methylbenzyl]urea] | 8.05 | 6.00 | –
16 | ON(CCCC(c1ccccc1)c1cccnc1)C(=S)NC1CCCCC1 (centres unmarked) [Compound 10, N'-cyclohexyl-N-hydroxy-N-[4-phenyl-4-(3-pyridyl)butyl]thiourea] | 9.05 | 6.52 | –
17 | O=C(NC1CCCCC1)N(O)CCCCCCC(c1ccccc1)c1cccnc1 (centres unmarked) [Compound 25, N'-cyclohexyl-N-hydroxy-N-[7-phenyl-7-(3-pyridyl)heptyl]urea] | 8.30 | 7.22 | –
18 | NC(=S)N(O)CCCCCC(c1ccccc1)c1cccnc1 (centres unmarked) [Compound 22, N-hydroxy-N-[6-phenyl-6-(3-pyridyl)hexyl]thiourea] | 8.40 | 6.70 | –
19 | O=C(NC1CCCCC1)N(O)Cc1cccc(OC(c2ccccc2)c2cccnc2)c1 (stereo not drawn) [Compound 44, N'-cyclohexyl-N-hydroxy-N-[3-[α-(3-pyridyl)benzyloxy]benzyl]urea] | 8.30 | 6.70 | –
20 | CC(CCCCCC(c1ccccc1)c1cccnc1)N(O)C(N)=O (centres unmarked) [Compound 28, N-hydroxy-N-[1-methyl-7-phenyl-7-(3-pyridyl)heptyl]urea] | 8.15 | 7.00 | –
21 | NC(=O)N(O)Cc1cccc(OC(c2ccccc2)c2cccnc2)c1 (stereo not drawn) [Compound 42, N-hydroxy-N-[3-[α-(3-pyridyl)benzyloxy]benzyl]urea] | 7.22 | 6.52 | –
22 | COc1cccc(NC(=O)N(O)CCCC(c2ccccc2)c2cccnc2)c1 (centres unmarked) [Compound 11, N-hydroxy-N'-(3-methoxyphenyl)-N-[4-phenyl-4-(3-pyridyl)butyl]urea] | 8.70 | 6.30 | –
23 | NC(=O)N(O)C/C=C/CCCC(c1ccccc1)c1cccnc1 (centres unmarked) [Compound 40, N-hydroxy-N-[(E)-7-phenyl-7-(3-pyridyl)-2-hepten-1-yl]urea] | 7.52 | 6.70 | –
24 | NC(=O)N(O)CCCCC/C=C(/c1ccccc1)c1cccnc1 [Compound 2, N-hydroxy-N-[(Z)-7-phenyl-7-(3-pyridyl)-6-hepten-1-yl]urea] | 7.70 | 7.22 | –
25 | O=C(NC1CCCCC1)N(O)CCCCC/C=C(/c1ccccc1)c1cccnc1 [Compound 3, N'-cyclohexyl-N-hydroxy-N-[(Z)-7-phenyl-7-(3-pyridyl)-6-hepten-1-yl]urea] | 8.05 | 7.30 | –
26 | CC(/C=C/CCCC(c1ccccc1)c1cccnc1)N(O)C(N)=O (centres unmarked) [Compound 41, N-hydroxy-N-[(E)-1-methyl-7-phenyl-7-(3-pyridyl)-2-hepten-1-yl]urea] | 8.30 | 6.70 | –
27 | COc1cccc(NC(=O)N(O)Cc2cccc(OC(c3ccccc3)c3cccnc3)c2)c1 (stereo not drawn) [Compound 45, N-hydroxy-N'-(3-methoxyphenyl)-N-[3-[α-(3-pyridyl)benzyloxy]benzyl] urea] | 8.22 | 7.05 | –
28 | CCNC(=O)N(O)CCCCCC(c1ccccc1)c1cccnc1 (centres unmarked) [Compound 23, N'-ethyl-N-hydroxy-N-[6-phenyl-6-(3-pyridyl)hexyl]urea] | 8.22 | 6.70 | –
